Experimental findings from patent US20260210939A1, “MODIFIED OLFACTORY RECEPTORS” (GIVAUDAN SA, priority 2022, published 2026) are described below.

Format in all cases: cell-based
Experiment [1] has as its target T1, OR10J1(M51I, I92M) (Homo sapiens, UniProt P30954, I103M/M62I).
T1 construct: expressed in transfected cells; transient transfection of pcDNA3.1(+) OR plasmid
T1 sequence (P30954 with tags, fused parts or gaps M62I/I103M): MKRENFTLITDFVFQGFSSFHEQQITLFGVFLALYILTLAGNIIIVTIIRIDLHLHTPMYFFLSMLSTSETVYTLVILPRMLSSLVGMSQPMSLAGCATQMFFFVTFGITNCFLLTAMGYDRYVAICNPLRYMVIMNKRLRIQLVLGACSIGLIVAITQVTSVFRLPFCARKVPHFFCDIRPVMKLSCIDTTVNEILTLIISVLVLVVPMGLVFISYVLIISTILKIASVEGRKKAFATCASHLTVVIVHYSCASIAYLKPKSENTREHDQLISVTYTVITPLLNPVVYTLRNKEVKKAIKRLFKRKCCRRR
The experiment can be described thus: Dose-response test of single lactones on OR10J1(M51I, I92M). As to the method: (§1) In a subsequent de-convultion experiment, the single ingredients were tested in a dose-response test on all the identified OR. […] Thus, OR2AP1 and OR2J2 are particularly strongly activated by the long-chain dodecalactone gamma, while OR10A3 is very sensitive to several longer chain lactones. […] Among the five OR, OR10A3 is the most sensitive.

For experiment [2], the target named is T2, OR2AP1 (Homo sapiens, UniProt Q8NGE2).
T2 construct: expressed in transfected cells; transient transfection of pcDNA3.1(+) OR plasmid
T2 sequence (Q8NGE2 with tags, fused parts or gaps limits assumed): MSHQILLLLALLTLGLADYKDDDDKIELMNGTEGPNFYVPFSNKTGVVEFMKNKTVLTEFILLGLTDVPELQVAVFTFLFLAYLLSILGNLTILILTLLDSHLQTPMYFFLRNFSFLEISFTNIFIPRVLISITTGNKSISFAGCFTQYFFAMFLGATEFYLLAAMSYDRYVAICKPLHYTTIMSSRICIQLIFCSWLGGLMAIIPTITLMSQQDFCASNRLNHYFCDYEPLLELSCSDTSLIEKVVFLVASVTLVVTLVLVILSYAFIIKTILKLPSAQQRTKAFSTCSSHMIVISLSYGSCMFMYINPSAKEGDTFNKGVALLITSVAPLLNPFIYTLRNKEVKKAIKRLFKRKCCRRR
The experiment can be described thus: Dose-response test of single lactones on OR2AP1. The method, then: as §1

In experiment [3] the target is T3, OR10A3 (Homo sapiens, UniProt P58181).
T3 construct: Class II OR library members with modified C-terminal domains; expressed in transfected cells
T3 sequence (P58181 with tags, fused parts or gaps): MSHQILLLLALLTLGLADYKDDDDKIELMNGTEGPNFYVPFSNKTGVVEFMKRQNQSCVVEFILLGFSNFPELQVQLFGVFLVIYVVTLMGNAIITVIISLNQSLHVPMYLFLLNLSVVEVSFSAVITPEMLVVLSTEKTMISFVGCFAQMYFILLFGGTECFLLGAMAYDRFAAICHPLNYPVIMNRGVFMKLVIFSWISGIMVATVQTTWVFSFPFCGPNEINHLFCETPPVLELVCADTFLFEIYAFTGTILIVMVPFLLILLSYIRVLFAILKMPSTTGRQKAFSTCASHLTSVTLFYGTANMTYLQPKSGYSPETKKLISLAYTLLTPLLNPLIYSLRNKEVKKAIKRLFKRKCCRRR
The experiment can be described thus: Dose-response test of single lactones on OR10A3 (luciferase). The method, then:
as §1

For experiment [4], the target named is T4, OR2J2 (Homo sapiens, UniProt O76002, A146V/A218T/A302I/G300K/H297E/H74Y).
T4 construct: expressed in transfected cells; transient transfection of pcDNA3.1(+) OR plasmid
T4 sequence (O76002 with tags, fused parts or gaps H74Y/A146V/A218T/H297E/G300K/A302I limits assumed): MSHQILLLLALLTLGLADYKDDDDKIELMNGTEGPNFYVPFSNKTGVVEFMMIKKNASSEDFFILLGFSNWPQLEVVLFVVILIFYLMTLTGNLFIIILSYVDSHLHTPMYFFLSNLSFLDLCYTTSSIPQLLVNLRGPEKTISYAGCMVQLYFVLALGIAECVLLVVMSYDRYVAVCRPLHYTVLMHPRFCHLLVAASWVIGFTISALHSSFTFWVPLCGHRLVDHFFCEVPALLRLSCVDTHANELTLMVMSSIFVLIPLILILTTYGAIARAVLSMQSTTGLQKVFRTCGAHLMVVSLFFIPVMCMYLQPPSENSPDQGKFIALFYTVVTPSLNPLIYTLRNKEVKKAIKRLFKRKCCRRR
Description: Dose-response test of single lactones on OR2J2. The method, then:
as §1

Experiment [5] concerns the target T5, OR10A6(A117V, V140G, L287P) (Homo sapiens, UniProt Q8NH74, A117V/L287P/V140G).
T5 construct: expressed in transfected cells; transient transfection of pcDNA3.1(+) OR plasmid
T5 sequence (Q8NH74 with tags, fused parts or gaps A117V/V140G/L287P limits assumed): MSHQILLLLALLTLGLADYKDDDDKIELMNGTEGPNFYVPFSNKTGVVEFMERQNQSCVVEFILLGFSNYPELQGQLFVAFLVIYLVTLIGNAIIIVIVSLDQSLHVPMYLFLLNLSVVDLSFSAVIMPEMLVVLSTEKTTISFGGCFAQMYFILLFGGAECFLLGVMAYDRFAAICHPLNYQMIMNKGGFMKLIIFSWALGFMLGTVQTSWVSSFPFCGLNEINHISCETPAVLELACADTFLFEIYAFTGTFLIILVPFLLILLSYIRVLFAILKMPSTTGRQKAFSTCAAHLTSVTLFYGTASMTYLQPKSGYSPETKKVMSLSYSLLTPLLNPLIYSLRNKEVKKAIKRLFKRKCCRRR
Description: Dose-response test of single lactones on OR10A6(A117V, V140G, L287P). As to the method: as §1

The target of experiment [6] is T6, OR10J5 (Homo sapiens, UniProt Q8NHC4).
T6 construct: Improved functional expression of modified OR-genes containing the truncated, optimized C-terminus; expressed in transfected cells; host or cells: HEK293T stably expressing human RTP1S(V227I) and RTP2(L220R)
T6 sequence (Q8NHC4 with tags, fused parts or gaps): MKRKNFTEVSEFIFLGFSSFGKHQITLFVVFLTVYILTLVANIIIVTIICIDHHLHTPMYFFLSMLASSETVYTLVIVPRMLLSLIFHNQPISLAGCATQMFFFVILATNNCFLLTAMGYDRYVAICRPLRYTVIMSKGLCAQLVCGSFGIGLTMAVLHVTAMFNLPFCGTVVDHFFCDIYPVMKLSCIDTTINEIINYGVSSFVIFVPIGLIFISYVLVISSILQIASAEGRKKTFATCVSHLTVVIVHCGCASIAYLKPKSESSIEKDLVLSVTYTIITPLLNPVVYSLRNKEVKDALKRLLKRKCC
The following applies: changed C-term. vs wild-type.

Experiment [7] concerns the target T7, OR56A4 (Homo sapiens, UniProt Q8NGH8, T299N).
T7 construct: Improved functional expression of modified OR-genes containing the truncated, optimized C-terminus; expressed in transfected cells; host or cells: HEK293T stably expressing human RTP1S(V227I) and RTP2(L220R)
T7 sequence (Q8NGH8 with tags, fused parts or gaps T299N): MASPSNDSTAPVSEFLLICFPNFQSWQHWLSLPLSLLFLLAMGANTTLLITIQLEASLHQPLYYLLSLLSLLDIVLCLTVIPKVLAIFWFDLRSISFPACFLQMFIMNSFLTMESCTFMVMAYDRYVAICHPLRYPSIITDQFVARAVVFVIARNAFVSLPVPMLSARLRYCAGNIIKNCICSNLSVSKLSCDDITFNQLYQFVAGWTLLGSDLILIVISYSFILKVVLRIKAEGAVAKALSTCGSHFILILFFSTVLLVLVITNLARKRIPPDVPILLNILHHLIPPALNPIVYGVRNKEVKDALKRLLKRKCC
Description: cell-based. Particulars: for activation of the wild-type: wild-type OR56A4. The method, then:
Activation of OR56A4 by acids of different chain length was further tested. […] Replacing the wild-type with the C-terminal sequence of the functional OR51E1 did reduce activity. However, using the optimized sequence form Examples 1-5 led to a strong signal and much lower detection threshold upon addition of all three acids.
These two improvements were further combined and the combination was tested on OR52A5 and two further class I receptors. […] In the case of OR52A4, 4-ethyloctanoic acid, which is detected at low concentrations by the human nose, is detected with a high luciferase response already at 0.19 μM by the receptor with the C-terminal modification showing very sensitive detection of this carboxylic acid by the modified class I receptor.

Turning to `CCCCCCCC1CCCC(=O)O1` (stereo not drawn) [Dodecalactone delta], the “EC2 (concentration for 2-fold luciferase induction)” value is 31.38 µM in experiment [1], 15.76 µM in experiment [2], 35.12 µM in experiment [4] and 1.11 µM in experiment [5]. Moreover, in experiment [3], the “EC10, concentration for 10-fold OR activation” value is 2.59 μM.
For the compound `CCCCCCCCC1CCC(=O)O1` (stereo not drawn) [Dodecalactone gamma], the “EC2 (concentration for 2-fold luciferase induction)” value turned out to be 5.31 µM in experiment [1], 1.31 µM in experiment [2], 1.41 µM in experiment [4] and 0.48 µM in experiment [5]. In addition, the “EC10, concentration for 10-fold OR activation” value in experiment [3] is listed as 0.85 μM.
As for `C/C(=C\CCC=O)CCCC(C)(C)O` [Mahonial, (4E)-9-hydroxy-5,9-dimethyl-4-Decenal], in experiment [6], the Fold-improvement potency worked out at 2.3.
Take `CC1=CCC(C(C)CC2CCCC2=O)CC1` (stereo not drawn) [Nectaryl]: the “EC2 (concentration for 2-fold luciferase induction)” value in experiment [2] is 19.72 µM; in experiment [4] it was “inactive”; in experiment [5] it was 1.12 µM. Further, the “EC10, concentration for 10-fold OR activation” value in experiment [3] was 2.32 μM.
In the case of `CCCCCCCC1CCC(=O)O1` (stereo not drawn) [Undecalactone gamma], the “EC2 (concentration for 2-fold luciferase induction)” value in experiment [1] amounted to 2.11 µM; in experiment [2], 6.53 µM; in experiment [4], 0.71 µM; in experiment [5], 0.34 µM. For the same compound, the “EC10, concentration for 10-fold OR activation” value in experiment [3] worked out at 0.28 μM.
The term EC50 denotes the concentration needed to bring the measured effect to its halfway point. `CCCCCCCCCCC(=O)O` [Undecanoic acid]: in experiment [7] (changed C-term. vs wild-type), the Fold-improvement potency is on record as 5.1. Besides, the EC50 in experiment [7] (wild-type) is 114 µM. Besides, the “activation of the wild-type” value in experiment [7] was “activated at high concentration”.
`CCCCCCCCCC(=O)O` [decanoic acid]: in experiment [7], the “activation of the wild-type” value was “activated at high concentration”.
